This note sets out measurements from ChEMBL document CHEMBL1201862, “PubChem BioAssay data set” (2004).

Experiment [1] has as its target Cystic fibrosis transmembrane conductance regulator/Golgi-associated PDZ and coiled-coil motif-containing protein (Homo sapiens, UniProt P13569+Q9HD26). The experiment can be described thus: potency against CAL PDZ-peptide interaction – biochemical, fluorescence polarization, Cerulean-tagged CAL PDZ, cherry-picks, dose response (AID 504773). (In general: Fluorescence polarisation rises when a labelled molecule tumbles more slowly, as on binding a larger partner.)

The target of experiment [2] is T1, Zinc finger protein mex-5 (Caenorhabditis elegans, UniProt Q9XUB2).
T1 sequence (Q9XUB2 whole entry): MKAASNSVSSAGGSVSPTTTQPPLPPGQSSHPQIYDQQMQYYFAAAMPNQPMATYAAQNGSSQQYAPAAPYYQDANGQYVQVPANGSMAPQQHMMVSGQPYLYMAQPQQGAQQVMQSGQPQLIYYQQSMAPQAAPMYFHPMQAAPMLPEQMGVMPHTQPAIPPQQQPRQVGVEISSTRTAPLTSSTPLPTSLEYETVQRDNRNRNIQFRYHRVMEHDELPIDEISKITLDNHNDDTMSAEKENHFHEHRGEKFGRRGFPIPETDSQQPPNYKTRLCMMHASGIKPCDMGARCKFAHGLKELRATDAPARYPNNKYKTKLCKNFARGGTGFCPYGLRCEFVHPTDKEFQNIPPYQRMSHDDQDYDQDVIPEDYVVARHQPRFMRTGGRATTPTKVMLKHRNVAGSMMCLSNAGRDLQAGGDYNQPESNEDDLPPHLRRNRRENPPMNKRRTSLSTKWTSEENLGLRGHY
Put plainly: potency of MEX-5 RNA-binding blockers – biochemical, C. elegans, fluorescence polarization, dose response (AID 1960).

Experiment [3] has as its target T2, Hexokinase HKDC1 (Homo sapiens, UniProt Q2TB90).
T2 sequence (Q2TB90 whole entry): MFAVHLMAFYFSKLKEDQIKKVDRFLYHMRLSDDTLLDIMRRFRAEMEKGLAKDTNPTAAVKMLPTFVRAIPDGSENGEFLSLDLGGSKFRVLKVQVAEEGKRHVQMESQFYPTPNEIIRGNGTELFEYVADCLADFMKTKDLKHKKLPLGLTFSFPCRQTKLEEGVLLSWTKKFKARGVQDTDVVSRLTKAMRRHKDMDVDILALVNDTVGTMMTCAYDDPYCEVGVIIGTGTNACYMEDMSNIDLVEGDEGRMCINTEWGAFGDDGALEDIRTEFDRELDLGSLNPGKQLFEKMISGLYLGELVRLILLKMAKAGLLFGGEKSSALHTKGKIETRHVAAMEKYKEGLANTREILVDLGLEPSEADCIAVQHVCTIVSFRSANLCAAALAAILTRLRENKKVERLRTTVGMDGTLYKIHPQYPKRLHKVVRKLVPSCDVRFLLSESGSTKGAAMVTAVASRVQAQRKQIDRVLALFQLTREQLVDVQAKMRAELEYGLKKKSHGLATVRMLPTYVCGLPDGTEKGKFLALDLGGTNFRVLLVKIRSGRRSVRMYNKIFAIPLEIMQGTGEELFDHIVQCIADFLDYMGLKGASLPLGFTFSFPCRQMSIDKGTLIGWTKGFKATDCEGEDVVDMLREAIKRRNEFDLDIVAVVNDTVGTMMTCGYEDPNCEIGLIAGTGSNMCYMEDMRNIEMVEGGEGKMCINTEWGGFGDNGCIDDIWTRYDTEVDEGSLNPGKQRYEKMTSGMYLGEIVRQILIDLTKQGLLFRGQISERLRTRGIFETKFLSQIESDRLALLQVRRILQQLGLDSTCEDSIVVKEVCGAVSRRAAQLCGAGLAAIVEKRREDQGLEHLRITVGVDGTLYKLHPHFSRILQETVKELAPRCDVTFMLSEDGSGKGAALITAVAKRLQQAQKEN
Put plainly: activation of HKDC1 glucose phosphorylation – biochemical, W721R variant, dose response (AID 504730). Type of experiment: functional.

Experiment [4] concerns the target T3, Caspase-3 (Homo sapiens, UniProt P42574).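 Note: Dose-response selectivity test against caspase-3 for candidate inhibitors of sentrin-specific proteases (SENPs).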
T3 sequence (P42574 whole entry): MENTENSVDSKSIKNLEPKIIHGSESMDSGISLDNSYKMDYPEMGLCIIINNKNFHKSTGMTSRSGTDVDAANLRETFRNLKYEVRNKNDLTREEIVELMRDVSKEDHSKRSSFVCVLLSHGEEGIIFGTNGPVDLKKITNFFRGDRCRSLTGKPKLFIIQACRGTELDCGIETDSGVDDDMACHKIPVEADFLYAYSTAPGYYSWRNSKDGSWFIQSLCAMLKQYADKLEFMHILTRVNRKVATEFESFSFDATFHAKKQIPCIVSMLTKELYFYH
The experiment is classed as functional.

Experiment [5] in a line: viability loss in HeLa cells – cytotoxicity control for MgcRacGAP inhibitor project, dose response (AID 624300). Type of experiment: functional.
Experiment [6] has as its target Sphingosine 1-phosphate receptor 1 (Homo sapiens, UniProt P21453). Type of experiment: functional.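 Note: Tango beta-arrestin reporter U2OS cells stimulated with S1P near its EC80; inhibitor potency meaning antagonism of receptor activation by the natural agonist.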
Experiment [7] addresses T4, Sphingosine 1-phosphate receptor 4 (Homo sapiens, UniProt O95977).
T4 sequence (O95977 whole entry): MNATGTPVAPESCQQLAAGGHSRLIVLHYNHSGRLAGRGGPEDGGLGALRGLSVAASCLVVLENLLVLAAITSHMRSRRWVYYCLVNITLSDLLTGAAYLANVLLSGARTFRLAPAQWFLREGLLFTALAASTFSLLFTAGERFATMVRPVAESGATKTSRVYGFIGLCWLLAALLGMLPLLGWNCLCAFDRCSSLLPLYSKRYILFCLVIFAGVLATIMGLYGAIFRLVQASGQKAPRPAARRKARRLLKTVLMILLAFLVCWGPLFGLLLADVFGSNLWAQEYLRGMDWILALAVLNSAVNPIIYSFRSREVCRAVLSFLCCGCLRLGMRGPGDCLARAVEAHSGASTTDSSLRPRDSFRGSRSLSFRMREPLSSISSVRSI
The experiment can be described thus: Fluorescence dose response cell-based high throughput screening assay for antagonists of the Sphingosine 1-Phosphate Receptor 4 (S1P4). [Related pubchem assays: 1524 (Confirmation in triplicates.), 1510 (Primary screen.)]. The experiment is classed as functional.

Experiment [8] has as its target Fatty acid synthase (Homo sapiens, UniProt P49327). The experiment can be described thus: inhibition of human FAS-TE enzyme activity – biochemical, kinetic fluorescence intensity, dose response (AID 624326).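 Note: rate of fluorescence rise from hydrolysis of a fluorogenic O-methyl fluorescein ester substrate.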 Type of experiment: functional.
For experiment [9], the system named is HEK293. The experiment can be described thus: NOD2 signaling inhibitors in MDP-stimulated cells, cell-based, uHTS, luminescence (AID 2001). To be noted: Homo sapiens. The experiment is classed as functional.
A short description of experiment [10]: viability loss in MITF-independent A375 cells – cell-based, CellTiter-Glo luminescence, dry powder, set 2, counter-screen for MITF inhibitor project, dose response (AID 624489).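 Note: actives are compounds lowering A375 viability meaning general cytotoxicity.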 Type of experiment: functional. To be noted: A-375.

Active and inactive are the calls of the source.

Cystic fibrosis transmembrane conductance regulator/Golgi-associated PDZ and coiled-coil motif-containing protein, sequence (P13569 whole entry, other chains not shown): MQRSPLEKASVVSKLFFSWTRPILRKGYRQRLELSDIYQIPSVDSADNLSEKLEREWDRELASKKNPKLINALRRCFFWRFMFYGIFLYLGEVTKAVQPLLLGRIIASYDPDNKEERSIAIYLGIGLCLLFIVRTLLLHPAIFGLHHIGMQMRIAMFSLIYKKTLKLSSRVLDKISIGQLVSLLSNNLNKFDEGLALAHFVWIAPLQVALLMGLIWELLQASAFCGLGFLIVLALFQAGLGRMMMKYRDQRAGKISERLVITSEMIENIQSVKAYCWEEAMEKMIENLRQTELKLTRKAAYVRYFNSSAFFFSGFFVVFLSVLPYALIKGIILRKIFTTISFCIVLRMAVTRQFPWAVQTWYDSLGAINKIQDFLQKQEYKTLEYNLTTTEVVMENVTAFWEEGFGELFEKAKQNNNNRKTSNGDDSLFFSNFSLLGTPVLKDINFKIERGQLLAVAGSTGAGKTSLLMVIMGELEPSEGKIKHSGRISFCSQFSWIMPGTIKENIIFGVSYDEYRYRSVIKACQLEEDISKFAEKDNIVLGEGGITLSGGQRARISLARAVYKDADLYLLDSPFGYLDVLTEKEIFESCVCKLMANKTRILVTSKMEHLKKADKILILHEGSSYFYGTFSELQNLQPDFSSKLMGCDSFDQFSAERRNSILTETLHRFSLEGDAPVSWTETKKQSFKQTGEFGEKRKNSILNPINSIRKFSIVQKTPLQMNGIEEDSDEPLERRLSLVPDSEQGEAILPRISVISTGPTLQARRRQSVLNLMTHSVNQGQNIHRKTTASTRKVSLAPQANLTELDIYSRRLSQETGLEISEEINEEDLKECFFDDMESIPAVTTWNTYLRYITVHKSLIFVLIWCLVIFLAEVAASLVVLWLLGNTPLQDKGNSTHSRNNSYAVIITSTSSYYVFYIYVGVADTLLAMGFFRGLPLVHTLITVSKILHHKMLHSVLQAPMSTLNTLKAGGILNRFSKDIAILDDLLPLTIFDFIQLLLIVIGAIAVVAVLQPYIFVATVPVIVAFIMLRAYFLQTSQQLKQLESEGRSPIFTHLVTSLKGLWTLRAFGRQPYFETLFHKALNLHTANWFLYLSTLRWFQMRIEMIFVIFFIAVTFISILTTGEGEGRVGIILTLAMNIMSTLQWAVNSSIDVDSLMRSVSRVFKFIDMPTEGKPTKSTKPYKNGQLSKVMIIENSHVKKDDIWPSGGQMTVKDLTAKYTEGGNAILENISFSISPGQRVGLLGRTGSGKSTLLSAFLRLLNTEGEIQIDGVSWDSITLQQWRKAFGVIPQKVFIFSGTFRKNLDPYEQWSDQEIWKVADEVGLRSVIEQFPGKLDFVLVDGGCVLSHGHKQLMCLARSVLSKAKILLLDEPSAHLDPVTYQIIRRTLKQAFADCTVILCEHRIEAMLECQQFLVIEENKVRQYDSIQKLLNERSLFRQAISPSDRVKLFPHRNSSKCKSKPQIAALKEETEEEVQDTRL
Fatty acid synthase, sequence (P49327 whole entry): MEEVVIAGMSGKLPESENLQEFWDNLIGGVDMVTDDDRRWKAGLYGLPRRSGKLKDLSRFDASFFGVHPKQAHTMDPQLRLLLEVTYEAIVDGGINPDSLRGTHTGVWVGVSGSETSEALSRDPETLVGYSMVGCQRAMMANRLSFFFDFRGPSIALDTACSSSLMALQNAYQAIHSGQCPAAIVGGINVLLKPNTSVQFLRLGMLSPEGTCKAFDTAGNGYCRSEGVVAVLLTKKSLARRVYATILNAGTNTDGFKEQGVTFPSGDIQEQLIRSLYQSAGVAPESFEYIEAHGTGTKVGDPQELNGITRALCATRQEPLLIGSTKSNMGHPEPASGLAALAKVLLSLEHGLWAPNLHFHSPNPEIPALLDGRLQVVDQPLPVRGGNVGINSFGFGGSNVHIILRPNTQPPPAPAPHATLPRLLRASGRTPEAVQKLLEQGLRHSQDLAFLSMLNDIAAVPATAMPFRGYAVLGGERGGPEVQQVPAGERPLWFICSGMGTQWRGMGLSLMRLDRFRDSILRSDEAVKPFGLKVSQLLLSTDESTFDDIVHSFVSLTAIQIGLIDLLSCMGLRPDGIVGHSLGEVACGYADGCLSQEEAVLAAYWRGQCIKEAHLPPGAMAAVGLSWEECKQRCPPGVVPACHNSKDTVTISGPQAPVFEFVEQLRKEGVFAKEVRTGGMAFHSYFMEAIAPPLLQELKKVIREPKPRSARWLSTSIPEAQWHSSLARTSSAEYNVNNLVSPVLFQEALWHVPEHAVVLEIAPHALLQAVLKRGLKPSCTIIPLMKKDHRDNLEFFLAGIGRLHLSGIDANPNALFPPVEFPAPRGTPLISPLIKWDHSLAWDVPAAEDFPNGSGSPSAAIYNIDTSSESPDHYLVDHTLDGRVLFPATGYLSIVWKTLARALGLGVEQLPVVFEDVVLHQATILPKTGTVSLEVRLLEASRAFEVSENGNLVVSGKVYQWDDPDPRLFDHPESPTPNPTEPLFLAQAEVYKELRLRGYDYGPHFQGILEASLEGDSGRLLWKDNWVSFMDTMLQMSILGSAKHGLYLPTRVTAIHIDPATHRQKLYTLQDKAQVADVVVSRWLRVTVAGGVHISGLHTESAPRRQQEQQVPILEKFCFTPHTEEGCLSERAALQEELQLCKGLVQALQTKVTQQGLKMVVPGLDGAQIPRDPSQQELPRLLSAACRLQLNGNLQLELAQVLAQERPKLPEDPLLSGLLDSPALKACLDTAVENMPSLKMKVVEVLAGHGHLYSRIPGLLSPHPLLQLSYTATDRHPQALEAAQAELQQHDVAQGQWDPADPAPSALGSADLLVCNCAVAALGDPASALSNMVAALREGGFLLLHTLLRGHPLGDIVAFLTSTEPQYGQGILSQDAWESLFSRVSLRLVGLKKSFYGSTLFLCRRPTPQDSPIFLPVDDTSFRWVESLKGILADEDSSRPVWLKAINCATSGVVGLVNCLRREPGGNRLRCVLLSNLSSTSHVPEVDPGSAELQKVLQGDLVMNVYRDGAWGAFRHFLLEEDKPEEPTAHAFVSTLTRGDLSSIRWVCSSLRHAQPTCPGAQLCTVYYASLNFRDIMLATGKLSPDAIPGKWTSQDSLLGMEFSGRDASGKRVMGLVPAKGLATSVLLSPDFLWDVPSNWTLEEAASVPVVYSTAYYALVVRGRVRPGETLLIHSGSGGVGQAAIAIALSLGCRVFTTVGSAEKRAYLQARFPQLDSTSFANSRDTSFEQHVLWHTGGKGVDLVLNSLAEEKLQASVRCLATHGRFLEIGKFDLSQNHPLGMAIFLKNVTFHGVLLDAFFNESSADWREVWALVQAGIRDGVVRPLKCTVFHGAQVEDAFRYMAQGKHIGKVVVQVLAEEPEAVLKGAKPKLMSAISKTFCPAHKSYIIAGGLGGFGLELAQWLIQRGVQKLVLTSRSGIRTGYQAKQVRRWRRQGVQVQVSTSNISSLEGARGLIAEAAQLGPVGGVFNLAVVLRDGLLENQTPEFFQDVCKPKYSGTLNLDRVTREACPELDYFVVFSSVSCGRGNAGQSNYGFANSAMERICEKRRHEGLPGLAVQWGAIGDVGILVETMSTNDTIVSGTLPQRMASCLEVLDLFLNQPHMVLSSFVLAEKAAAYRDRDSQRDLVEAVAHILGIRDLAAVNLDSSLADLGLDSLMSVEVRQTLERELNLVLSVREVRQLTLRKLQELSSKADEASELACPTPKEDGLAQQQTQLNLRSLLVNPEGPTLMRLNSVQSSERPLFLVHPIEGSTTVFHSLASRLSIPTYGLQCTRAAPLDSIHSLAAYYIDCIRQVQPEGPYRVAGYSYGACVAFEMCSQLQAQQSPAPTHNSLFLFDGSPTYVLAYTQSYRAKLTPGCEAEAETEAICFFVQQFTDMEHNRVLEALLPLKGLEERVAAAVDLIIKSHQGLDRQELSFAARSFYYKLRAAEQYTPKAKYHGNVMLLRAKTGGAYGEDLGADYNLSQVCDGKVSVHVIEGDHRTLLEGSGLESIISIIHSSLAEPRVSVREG
Sphingosine 1-phosphate receptor 1, sequence (P21453 whole entry): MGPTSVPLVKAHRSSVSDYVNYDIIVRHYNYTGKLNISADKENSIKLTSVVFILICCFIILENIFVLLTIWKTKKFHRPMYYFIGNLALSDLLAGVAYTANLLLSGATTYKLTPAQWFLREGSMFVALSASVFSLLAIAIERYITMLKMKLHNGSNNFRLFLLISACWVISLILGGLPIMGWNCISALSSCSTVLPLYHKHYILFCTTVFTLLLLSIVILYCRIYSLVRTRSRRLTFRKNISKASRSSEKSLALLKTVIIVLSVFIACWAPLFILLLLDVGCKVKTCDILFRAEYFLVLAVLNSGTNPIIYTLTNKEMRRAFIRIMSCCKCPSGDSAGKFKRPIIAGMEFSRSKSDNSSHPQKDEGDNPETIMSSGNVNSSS

Regarding `O=C(O)CSc1cc(NS(=O)(=O)c2ccc(Br)cc2)c2ccccc2c1O`, in experiment [1], the AC50 (commonly the midpoint of the concentration-response curve, whichever way the signal moves) is 28.4 µM (active). For the same compound, the EC50 (in general, the concentration needed to bring the measured effect to its halfway point) in experiment [2] was 8.17 µM (active).

On to `O=C1NC(=S)N/C1=C/c1cc2c(cc1[N+](=O)[O-])OCO2`, for which, in [3], the EC50 was > 80 µM (inactive). Besides, the half-maximal inhibitory concentration (IC50) (commonly the midpoint of a concentration-inhibition curve) in experiment [4] was 27.6 µM (active).

Regarding `Cc1ccc(NC(=O)C2=C(c3ccccc3)S(=O)(=O)CCS2(=O)=O)cc1`, the half-maximal cytotoxic concentration (CC50) – broadly, the concentration that lowers cell viability or growth by half – in experiment [5] was 100 µM (active). Further, the IC50 in experiment [6] was 68.8 µM (not active); in experiment [7] it was 1.04 µM (active); in [8], 1.61 µM (active).

Consider `O=C(CNc1cccc2ccccc12)N/N=C/c1ccc([N+](=O)[O-])o1`, for which the IC50 in experiment [9] is 11.5 µM (inactive). Further, the AC50 in experiment [10] is > 70 µM (inactive).
